Results published in paper PMC9072872, “Structure-based design of nucleoside-derived analogues as sulfotransferase inhibitors” (RSC Advances, 2019).

How the values were obtained:
HS2ST = molecular target: T1, HS2ST (Gallus gallus, UniProt Q76KB1); test: Microfluidic mobility shift sulfation assay, HS2ST (fluorescent hexasaccharide substrate); type: biochemical, chicken; settings: read-out: IC50 against HS2ST
T1 construct: made in house; host or cells: E. coli Rosetta-gami (DE3)
T1 sequence (Q76KB1 1-356): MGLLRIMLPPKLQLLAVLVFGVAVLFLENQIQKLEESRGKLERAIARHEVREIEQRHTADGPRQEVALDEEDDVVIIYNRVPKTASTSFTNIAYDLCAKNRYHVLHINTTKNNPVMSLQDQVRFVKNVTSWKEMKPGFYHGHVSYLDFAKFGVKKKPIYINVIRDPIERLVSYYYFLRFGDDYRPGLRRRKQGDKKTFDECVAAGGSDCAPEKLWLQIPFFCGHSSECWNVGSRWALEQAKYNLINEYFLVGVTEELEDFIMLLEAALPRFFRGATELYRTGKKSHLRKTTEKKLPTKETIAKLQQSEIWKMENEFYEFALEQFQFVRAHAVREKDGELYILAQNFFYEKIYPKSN
Description: (§1) Compounds were initially screened at 400 μM in the presence 20 nM HS2ST and 0.1 μM TPST1 respectively.
(§2) Fig. 4 Summary of enzymatic inhibition assays against HS2ST and TPST1. (A) Enzymatic analysis of HS2ST1 inhibition by a panel of PAP- and PAPS-mimetic compounds. […] HS2ST sulfotransferase activity was assayed using a fluorescent hexasaccharide substrate (2 μM) and normalised to DMSO (4% v/v) or buffer control. Data shown is mean and SD of 4 repeat experiments. (B) Full dose–response curves for selected compounds. […] HS2ST activity calculated as previously described. Data from two independent experiments are combined. (C) Enzymatic analysis of TPST1 inhibition by a panel of PAP- and PAPS-mimetic compounds. […] TPST1 activity was measured using fluorescently-labelled CC4-tide (2 μM) and normalised to DMSO (4% v/v) or buffer control. (D) Full dose–response curves for selected compounds. […] TPST1 activity was measured using CC4-tide and normalised to DMSO or buffer controls as previously described. The data shown is from duplicate experiments.
N-sulfated, fluorescein-tagged HS2ST1 hexasaccharide glycan substrate (GlcNS-GlcA- GlcNS-IdoA-GlcNS-GlcA-fluorescein, where S=sulfation) containing L-IdoA at the third residue from the reducing end (to which a linker and the fluorophore were conjugated) was purchased from GLY CAN therapeutics. TPST1 peptide substrate (CC4-tide, 5-FAM-EDFED YEFDG-CONH2) was synthesised using solid-phase Fmoc chemistry (Pepceuticals, Leicester, UK). All standard laboratory biochemicals, were purchased from Sigma, and were of the highest analytical quality.
(§3) 5'-phosphosulfate, lithium salt hydrate, PAP (adenosine 3',5'-diphosphate, disodium salt), CoA (coenzymeA, sodium salt), ATP (adenosine 5’-triphosphate, disodium salt hydrate) were all purchased from Sigma and stored at -80 °C to minimise degradation.
Recombinant Protein Production and SDS-PAGE […]
(§4) Microfluidics-Based Sulfation Assay
(§5) Non-radioactive microfluidic mobility shift peptide and carbohydrate sulfation assays were performed in solution with a 12-sipper chip coated with SR8 reagent and a Perkin Elmer EZ Reader II system 8 using an EDTA-based separation buffer and real-time kinetic evaluation of substrate sulfation. Pressure and voltage settings were adjusted manually to afford optimal separation of the sulfated product and non-sulfated substrate, with a sample (sip) volume of 20 nL, and total assay tim es appropriate for the experiment. The fluorophore tagged TPST1 peptide substrate and HS2ST1 glycan substrate where detected by the EZ Reader via LED-induced fluorescence.
(§6) Individual sulfation assays were assembled in a 384 well plate in a volume of 80 µL in the presence of […]
(§7) and 5 mM MgCl2. The degree of substrate sulfation was directly calculated using EZ Reader software by measuring the sulfo-product:non-sulfated substrate ratio at each time-point. The act ivity of the sulfotransferase enzymes in the presence of biochemicals and small molecule inhibitors was quantified in ‘kinetic mode’ by monitoring the amount of sulfated product generated over the assay time, relative to control assay with no additional inhibitor molecule (DMSO or buffer control). Data was normalized with respect to these control assays, with sulfate incorporation into the substr ate limited to ~ 20% to prevent depletion of PAPS and to ensure assay linearity. K m and IC50 values were determined by non-linear regression analysis with GraphPad Prism software. […]

TPST1 [1] = molecular target: T2, TPST1 (Homo sapiens, UniProt O60507); test: Microfluidic mobility shift sulfation assay, TPST1 (fluorescent CC4-tide substrate); type: biochemical; settings: for IC50: read-out: IC50 against TPST1
T2 construct: Human TPST1 (residues Lys43-Leu360) enzyme was purified as a recombinant protein; made in house
T2 sequence (O60507 43-360): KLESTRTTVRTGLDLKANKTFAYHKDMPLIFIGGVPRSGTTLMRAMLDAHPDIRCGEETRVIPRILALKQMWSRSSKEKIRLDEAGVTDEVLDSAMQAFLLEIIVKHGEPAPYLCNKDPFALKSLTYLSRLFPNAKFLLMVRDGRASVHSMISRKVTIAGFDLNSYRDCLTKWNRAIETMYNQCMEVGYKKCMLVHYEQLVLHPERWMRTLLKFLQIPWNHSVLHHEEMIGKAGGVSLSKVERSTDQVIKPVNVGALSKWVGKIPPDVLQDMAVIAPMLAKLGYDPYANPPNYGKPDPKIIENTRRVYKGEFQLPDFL
Description: as §1
as §2, with “duplicate experiments. […]” for “duplicate experiments.”
TPST1 peptide substrate (CC4-tide, 5-FAM-EDFED YEFDG-CONH2) was synthesised using solid-phase Fmoc chemistry (Pepceuticals, Leicester, UK). All standard laboratory biochemicals, were purchased from Sigma, and were of the highest analytical quality.
as §3
(§8) Recombinant Protein Production and SDS-PAGE
(§9) Human TPST1 (residues Lys43-Leu360) enzyme was purified as a recombinant protein containing an N-terminal 6xHis tag as previously described. […]
as §4, §5, §6, §7

TPST1 [2] = molecular target: T2, TPST1; test: Immunoblot of GST-CC4tide tyrosine sulfation by TPST1 (anti-sulfotyrosine antibody); type: biochemical; settings: compound 400 μM, GST-CC4-tide 1 μg, TPST1 0.2 μg, PAPS 5 μM, 15 min
Description: In order to further assess TPST1 inhibition by 2′-deoxy-PAP and compounds 1–14 using a complementary assay, immunoblotting of a TPST1 protein substrate (GST-CC4tide) was implemented with a monoclonal antibody that specifically recognises sulfotyrosine, using PAP as positive control (Fig. 5A). Compounds were screened at 400 μM in the assay. In common with the […] enzyme assay using a synthetic peptide, a broad range of inhibitory activities was observed.
Fig. 5 Immunological evaluation of TPST1 inhibition towards substrate and a Ser/Thr protein kinase counter-screen. (A) Immunoblots evaluating TPST1 sulfotransferase activity in the presence of a panel of PAP- and PAPS-mimetic compounds. […] After termination of the reaction using SDS-PAGE sample buffer, tyrosine sulfation was visualised by immunoblotting using a monoclonal sulfotyrosine antibody (top panel), with equal GST-CC4-tide and TPST1 loading confirmed using an antibody to detect 6xHis tagged proteins (bottom panel). (B) Enzymatic inhibition of PKA catalytic activity by a panel of PAP- and PAPS-mimetic compounds. PKA kinase (1 nM) was incubated with ATP (5 μM) in the presence of the appropriate nucleoside analogue (400 μM) for 30 min at 20 °C. PKA activity was calculated in real-time using fluorescently-labelled substrate peptide (2 μM) and normalised to DMSO (4% v/v) or buffer control.[77] Data in B is mean and SD of 3 individual experiments. Staurosporine is included at 40 μM as a generic inhibitor of kinase activity. […]
All standard laboratory biochemicals, were purchased from Sigma, and were of the highest analytical quality.
as §3, §8, §9
pMAL-c2x plasmid encoding an N-terminal Maltose Binding Protein (MBP) affinity tag.6 Glutathione-S-transferase (GST) tagged CC4-tide ([…]) was cloned into pOPINJ (OPPF-UK) and […]
affinity purified from BL21 (DE3) pLysS E. coli using Glutathione-Sepharose 4B (GE Healthcare). 5 For SDS-PAGE, proteins were denatured in Laemmli sample buffer, heated at 95 °C for 5 min and then analysed by SDS-PAGE with 10% (v/v) polyacrylamide gels. Gels were stained and de-stained using a standard Coomassie Brilliant Blue protocol. To evaluate protein sulfation by immunoblotting, standard western blotting procedures were followed using monoclonal anti-sulfotyrosine ant ibody clone o-1C-A2 (Millipore) generated using a phage display procedure and sulfotyrosine selection peptide antigens7 in the presence of appropriate positive and negative controls, and modifications visua lised using ECL […]
Data was normalized […]
with respect to these control assays, with sulfate incorporation into the substr ate limited to ~ 20% to prevent depletion of PAPS and to ensure assay linearity. K m and IC50 values were determined by non-linear regression analysis with GraphPad Prism software. […]

sulfotransferase = test system: sulfotransferase; set-up: method as in PMID 29934491, PMID 29934490; settings: non nucleoside-derived; cited from earlier work

Nc1ncnc2c1ncn2[C@@H]1O[C@H](COP(=O)(O)O)[C@@H](OP(=O)(O)O)[C@H]1O [PAP, adenosine 3′,5′-diphosphate, reference compound]
IC50 (HS2ST): 2 µM | IC50 (TPST1 [1]): 1.5 µM

Nc1ncnc2c1ncn2[C@H]1C[C@H](OCC(=O)NO)[C@@H](COCC(=O)NO)O1 [Compound 3]
suppression of tyrosine sulfation (immunoblot) (TPST1 [2]): partial suppression

Nc1ncnc2c1ncn2[C@H]1C[C@H](O)[C@@H](Cn2cc(C(=O)OCc3ccccc3)nn2)O1 [Compound 9]
IC50 (HS2ST): 100 to 300 µM | suppression of tyrosine sulfation (immunoblot) (TPST1 [2]): partial suppression

Nc1ncnc2c1ncn2[C@H]1C[C@H](OP(=O)(O)O)[C@@H](Cn2cc(C(=O)O)nn2)O1 [Compound 8]
IC50 (HS2ST): 100 to 300 µM | suppression of tyrosine sulfation (immunoblot) (TPST1 [2]): partial suppression

CC(=O)c1c(O)c(C)c(O)c(Cc2c(O)c3c(c(C(=O)/C=C/c4ccccc4)c2O)OC(C)(C)C=C3)c1O [rottlerin]
sulfotransferase inhibitor potency (sulfotransferase): low/sub-micromolar

Cc1ccc(C(=O)Nc2ccc(S(=O)(=O)O)c3cc(S(=O)(=O)O)cc(S(=O)(=O)O)c23)cc1NC(=O)c1cccc(NC(=O)Nc2cccc(C(=O)Nc3cc(C(=O)Nc4ccc(S(=O)(=O)O)c5cc(S(=O)(=O)O)cc(S(=O)(=O)O)c45)ccc3C)c2)c1 [suramin]
sulfotransferase inhibitor potency (sulfotransferase): low/sub-micromolar

Nc1ncnc2c1ncn2[C@H]1C[C@H](O)[C@@H](Cn2cc(C(=O)O)nn2)O1 [Compound 7]
suppression of tyrosine sulfation (immunoblot) (TPST1 [2]): did not show any activity | inhibitory activity against TPST1 (TPST1 [1]; compound 400 μM, TPST1 0.1 μM, PAPS 5 μM): showed activity

COC(=O)COC1CC(n2cnc3c(N)ncnc32)OC1COP(=O)(O)OCc1ccccc1 (stereo not drawn) [Compound 6]
suppression of tyrosine sulfation (immunoblot) (TPST1 [2]): complete suppression | IC50 (TPST1 [1]): 100 to 300 µM

COC(=O)COC1CC(n2cnc3c(N)ncnc32)OC1COP(=O)(O)O (stereo not drawn) [Compound 5]
suppression of tyrosine sulfation (immunoblot) (TPST1 [2]): complete suppression | IC50 (TPST1 [1]): 100 to 300 µM
